Patent US9518038B2, “Condensation product of theanine derivative and carboxylic acid coumarin derivative, its intermediate, preparation method and use thereof” (SHANDONG YINGDONG YINGHAO BIOTECHNOLOGY, INC., priority 2012, dated 2016)

Key:
[1] = tested on: EGFR; experiment: Western Blotting, EGFR level; type: cell-based; settings: human liver cancer cells, Lewis lung cancer cells and other cancer cell lines and tumor tissues, read-out: Effective concentration (IC50) for inhibition of EGFR
Description: (§1) Antibodies: primary antibodies of VEGFR, EGFR, c-Met, K-Ras, H-Ras, Akt, NF-κB, Cyclin D1, ER-alpha, Dvl-1, Dvl-2, Dvl-3, MMP-9, MMP2, β-catenin, Bcl-2, Bax, p53, p21, E-cadherin and Caspase3 protein, purchased from American Cell Signaling Technology Company and Santa Cruz Technology Company; and H3 acetylation, H4 acetylation and HDAC (HDAC3, HDAC4 and the like) Antibody Sample Kits, purchased from Cell Signaling Technology Company of the U.S.
(§2) (3) polyacrylamide gel electrophoresis (SDS-PAGE): an equal amount of protein lysate sample was used to separate protein, film transfer, and blocking, treated with appropriate primary antibodies and secondary antibodies in sequence, and the film was washed, then the color was developed with ECL kit, and a blot protein band was detected by exposure of an X-ray film; and a Gel-Pro Analyzer was used for quantitative analysis of gray degree, optical density value of the control group and the drug treatment group in various concentration were respectively compared with that of internal reference, the obtained ratios were respectively compared with the control group, and the protein expression level was semi-quantified.

[2] = tested on: human pancreatic cancer cells PANC-1 xenograft; experiment: In-vivo growth of PANC-1 xenografts in nude mice; set-up: species or system BALB/c nude mice; settings: Mus musculus, ip, vs DMSO solvent control, read-out: Curative effect (inhibition rate %) of tumor weight; for inhibition in vivo at 60 mg/kg: 60 mg/kg intraperitoneal once a day; for inhibition in vivo at 90 mg/kg: 90 mg/kg intraperitoneal once a day
Method: (§3) RPMI1640 and DMEM culture solutions: Hyclone Company; inactivated fetal bovine serum: Hyclone Company, preserved at −20° C.; trypsin: Amersco Company; and 0.4% trypan blue: Sigma Company;
(§4) (3) Observation of growth of tumors in nude mice: the activities (including food intake, traits of urine and stool, mental state and the like) of the nude mice and the tumor growth time and growth situation of the transplanted tumors were observed every day, the body weight and the size of the tumors were measured once every 2-3 days. The long diameter a and the short diameter b (mm) of each tumor were measured by a vernier caliper to calculate the volume, wherein the volume V=π1/2·ab^2 (mm^3);
(§5) (4) sacrifice of animals: the mice were anesthetized and photoed after treatment experiments; the nude mice were sacrificed by breaking neck, the tumor tissues were stripped under sterile conditions and the weight of the tumors was weighed; and the effects of the drugs on pathology and toxicity of the various organs and tissues were detected.

[3] = tested on: human pancreatic cancer cells PANC-1; experiment: MTT growth inhibition, PANC-1 cells; type: cell-based; settings: 72 h after treatment, read-out: Drug concentration (IC50) at which 50% cancer cells survived
Description: (§6) Cell lines and cell culture: human lung cancer cells A549 and H460, human breast cancer cells MCF-7 and MDA-MB-231, human gastric cancer cells BGC-823, human prostate cancer cells PC-3, human chronic leukemia cells K562, human lymphoma cells U937, human liver cancer cells SMMC7721 and HepG2, human colon cancer cells HT29, human pancreatic cancer cells PANC-1 and BxPC3, human cervical cancer Hela cell lines, human brain tumor cells Daoy, human neuroma cells D54 and human oral epidermoid cancer cells KBV200 line with strong drug resistance, mouse melanoma cells B16, and highly metastatic Lewis lung cancer cell lines were purchased from American Type Culture Collection of the U.S. These cells were cultured with DMEM and RPMI-1640 culture solutions separately.
(§7) The procedure was as follows:
(§8) (1) 0.25% trypsin was used to digest cancer cells in a logarithmic growth phase to prepare a single-cell suspension, the concentration of cells was adjusted to 5×10^4/mL, and the adjusted suspension was inoculated into a 96-well culture plate with 100 μl per well;
(§9) (2) The culture plate was transferred into a 37° C. incubator with a saturated humidity and 5% of CO2 and cultured for 24 h; the compounds and the intermediates thereof obtained in embodiments 1-7 and the compound as represented by formula (IIIa) or the positive control anti-cancer drug with the concentration of 1-1000 μM/L were added to enable the final concentration to be 0.1-1500 μM/L. Control wells (only added with 200 μl of cell suspension) and drug-free blank control wells (containing the solvent of 0.01% DMSO) were set, each group included 8 wells, and the plate was placed into the 37° C. incubator with saturated humidity and 5% of CO2 for culturing;
(§10) (3) The 96-well plate was taken out at 48 h and 72 h after dosing, the original culture medium was carefully removed by suction, 100 μl of serum-free DMEM culture medium and 10 μl of MTT (5 mg/mL) solution were added in each well. The plate was continuously cultured for another 4 h and then the culture was terminated;
(§11) (4) The supernatant in the wells was carefully removed by suction, each well was added with 150 μl of DMSO and shaked at room temperature for 10-15 min to fully dissolve crystals.
(§12) (5) Colorimetric analysis: the wavelength was selected as 570 nm, the light absorbance (A value) of each well was determined on the microplate reader and the results were recorded; the experiment was repeated for three times;
(§13) (6) the experimental results were calculated according to the following formula: relative survival rate=(A value of each experimental group/A value of cell control group)×100%
(§14) Calculation of median-effect concentration (IC50, namely the drug concentration at which the inhibition rate is 50%, also known as half inhibitory concentration):
(§15) IC50 of the detected component was calculated by using a regression equation.

[4] = tested on: HDAC3; experiment: Western Blotting, HDAC3 level; type: cell-based; settings: human liver cancer cells, Lewis lung cancer cells and other cancer cell lines and tumor tissues, read-out: Effective concentration (IC50) for inhibition of HDAC3
Description: as §1, §2

[5] = tested on: VEGFR1; experiment: Western Blotting, VEGFR1 level; type: cell-based; settings: human liver cancer cells, Lewis lung cancer cells and other cancer cell lines and tumor tissues, read-out: Effective concentration (IC50) for inhibition of VEGFR1
Description: as §1, §2

[6] = tested on: human liver cancer cells SMMC7721; experiment: MTT growth inhibition, SMMC7721 cells; type: cell-based; settings: SMMC-7721, S-7721 (SMMC7721), 72 h after treatment, read-out: Drug concentration (IC50) at which 50% cancer cells survived
Description: as §6, §7, §8, §9, §10, §11, §12, §13, §14, §15

[7] = tested on: E-cadherin; experiment: Western Blotting, increase of E-cadherin level; type: cell-based; settings: liver cancer cells, Lewis lung cancer cells and other cancer cell lines and tumor tissue protein lysates, 48 h treatment, read-out: Effective concentration to increase E-cadherin by 50%
Description: as §1, §2

[8] = tested on: HDAC4; experiment: HDAC4 enzyme activity in nuclear extracts of human tumor xenografts of treated mice; settings: second value of the pair HDAC3 and HDAC4, SAHA 25 mg/kg
Method: For the detection of the effect of the drugs on enzyme activity of EZH2 and HDAC of in-vivo tumors, the tumors were separately excised after 6 h of medication, total proteins and nucleoproteins were extracted separately to detect and analyze the activity of the enzyme.
(2) 50 μl of diluted sample solution was added into each reaction well, the plate was sealed with a plate-sealing film and reacted at room temperature for 30 min;
(3) the plate-sealing film was carefully peeled off, the liquid was removed, dried, 150 μl of washing liquid was added into each well, stood for 30 s, then the liquid was removed, repeated twice, and dried;
(4) 2 μl of HDAC enzyme or tumor tissue nuclear extracts was respectively uniformly mixed with 28 μl of diluted sample solution, added into the wells, the plate was sealed with the plate-sealing film and reacted at 37° C. for 60 min;
(5) the plate was washed for three times, wherein the operation was the same as that in (3); and a diluted antibody capture working solution was added into each reaction well according to 50 μl/well and reacted on a shaking bed at room temperature for 60 min;
(6) the plate was washed for four times, wherein the operation was the same as that in (3);
(7) a diluted antibody detection working solution was added into each reaction well according to 50 μl/well and reacted at room temperature for 30 min;
(8) the plate was washed for five times, wherein the operation was the same as that in (3);
a color developing agent was added according to 100 μl/well, and performed dark development for 2-10 min;
(9) 50 μl of stop solution was added into each well for stopping the reaction when the color in the well with a standard product turned blue with medium intensity, the color immediately turned yellow from blue after the addition;
(10) the light absorbance (OD value) of each well was measured in sequence at the wavelength of 450 nm; wherein the measurement should be performed within 15 min after addition of the stop solution; and

[9] = tested on: human lung cancer cells A549 xenograft; experiment: In-vivo growth of A549 xenografts in nude mice; set-up: species or system BALB/c nude mice; settings: Mus musculus, ip, vs DMSO solvent control, read-out: Curative effect (inhibition rate %) of tumor weight; for inhibition in vivo at 60 mg/kg: 60 mg/kg intraperitoneal once a day; for inhibition in vivo at 90 mg/kg: 90 mg/kg intraperitoneal once a day
Method: as §3, §4, §5

[10] = tested on: p21; experiment: Western Blotting, increase of p21 level; type: cell-based; settings: liver cancer cells, Lewis lung cancer cells and other cancer cell lines and tumor tissue protein lysates, 48 h treatment, read-out: Effective concentration to increase p21 by 50%
Description: as §1, §2

[11] = tested on: human colon cancer cells HT29; experiment: MTT growth inhibition, HT29 cells; type: cell-based; settings: HT-29, 72 h after treatment, read-out: Drug concentration (IC50) at which 50% cancer cells survived
Description: as §6, §7, §8, §9, §10, §11, §12, §13, §14, §15

SMILES	IC50 [1] [µM]	inhibition in vivo at 60 mg/kg [2] [%]	inhibition in vivo at 90 mg/kg [2] [%]	IC50 [3] [µM]	IC50 [4] [µM]	IC50 [5] [µM]	IC50 [6] [µM]	EC50 [7] [µM]	decrease of HDAC4 enzyme activity/inhibition rate ([8]; A549 tumor grown in vivo)	decrease of HDAC4 enzyme activity/inhibition rate ([8]; SMMC7721 tumor grown in vivo)	inhibition in vivo at 60 mg/kg [9] [%]	inhibition in vivo at 90 mg/kg [9] [%]	EC50 [10] [µM]	IC50 [11] [µM]	decrease of HDAC4 enzyme activity/inhibition rate ([8]; MCF7 tumor grown in vivo)	decrease of HDAC4 enzyme activity/inhibition rate ([8]; MDA-MB231 tumor grown in vivo)
CCNC(=O)CCC(NC(=O)c1cc2ccccc2oc1=O)C(=O)OCC (centres unmarked) [Compound Ib, ethyl 5-ethylamino-5-oxo-2-(2-oxo-2H-benzopyran-3-carboxamido)pentanoate]	< 120	54.6	65.9	65	< 70	< 120	17	< 70	62%*(A549)-	61%*(SMMC-7721)	53.6	60.6	< 120	105	–	–
CCNC(=O)CCC(NC(=O)c1cc2ccccc2oc1=O)C(=O)OC (centres unmarked) [Compound Ia, methyl 5-ethylamino-5-oxo-2-(2-oxo-2H-benzopyran-3-carboxamido)pentanoate]	< 125	55.8	60.5	67 ± 30	< 75	< 125	75 ± 30	< 75	–	58%*(SMMC7721)	48.6	51.6	< 125	62	–	–
CCNC(=O)CC[C@@H](NC(=O)c1cc2cc(Cl)ccc2oc1=O)C(=O)OCC [Compound Ic, (R)-2-(6-CI-2-oxo-2H-benzopyran-3-carboxamido)-5-ethylamino-5-oxo-pentanoic acid ethyl ester]	< 100	56.5	66.7	54	< 65	< 100	75	< 65	73%*(A549)-	67%*(SMMC-7721);	61.6	67.6	< 100	105	63%*(MCF7)	65%*(MDA-MB231)
CCNC(=O)CC[C@H](N)C(=O)OC [Compound IIa, theanine methyl ester]	–	33.4	37.7	280	–	–	230	–	–	–	29.6	31.7	–	250	–	–
